Patent US11759455B2, “Substituted 1H-imidazo[4,5-b]pyridin-2(3H)-ones and their use as GLUN2B receptor modulators” (JANSSEN PHARMACEUTICA NV, priority 2016, dated 2023)
Read-outs that look alike come from different tables or passages of the source.

Molecular target: T1, human GluN1/GluN2B NMDA receptors (Homo sapiens, UniProt Q13224)
T1 construct: expressed in transfected cells
Test: Cell-based calcium flux (FLIPR) assay on cloned human NR1/NR2B ion channels expressed in mammalian cells (standard and HTS buffer variants);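 further: stable Tet-On inducible cell line, Ca2+ influx triggered by glutamate at about EC40 plus 10 µM glycine, fluorescent dye read-out over 5 min, normalized to control wells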

[1] = standard assay buffer (0.5 mM MgCl2 dye loading; 137 mM NaCl, 4 mM KCl assay buffer), human GluN1/GluN2B cells, read-out: NR2B IC50 (μM) standard assay
[2] = standard assay buffer (0.5 mM MgCl2 in dye loading buffer; 137 mM NaCl, 4 mM KCl in assay buffer), human GluN1/GluN2B, read-out: NR2B IC50 (μM) standard assay

T1 sequence (Q13224 27-1484, other chains not shown): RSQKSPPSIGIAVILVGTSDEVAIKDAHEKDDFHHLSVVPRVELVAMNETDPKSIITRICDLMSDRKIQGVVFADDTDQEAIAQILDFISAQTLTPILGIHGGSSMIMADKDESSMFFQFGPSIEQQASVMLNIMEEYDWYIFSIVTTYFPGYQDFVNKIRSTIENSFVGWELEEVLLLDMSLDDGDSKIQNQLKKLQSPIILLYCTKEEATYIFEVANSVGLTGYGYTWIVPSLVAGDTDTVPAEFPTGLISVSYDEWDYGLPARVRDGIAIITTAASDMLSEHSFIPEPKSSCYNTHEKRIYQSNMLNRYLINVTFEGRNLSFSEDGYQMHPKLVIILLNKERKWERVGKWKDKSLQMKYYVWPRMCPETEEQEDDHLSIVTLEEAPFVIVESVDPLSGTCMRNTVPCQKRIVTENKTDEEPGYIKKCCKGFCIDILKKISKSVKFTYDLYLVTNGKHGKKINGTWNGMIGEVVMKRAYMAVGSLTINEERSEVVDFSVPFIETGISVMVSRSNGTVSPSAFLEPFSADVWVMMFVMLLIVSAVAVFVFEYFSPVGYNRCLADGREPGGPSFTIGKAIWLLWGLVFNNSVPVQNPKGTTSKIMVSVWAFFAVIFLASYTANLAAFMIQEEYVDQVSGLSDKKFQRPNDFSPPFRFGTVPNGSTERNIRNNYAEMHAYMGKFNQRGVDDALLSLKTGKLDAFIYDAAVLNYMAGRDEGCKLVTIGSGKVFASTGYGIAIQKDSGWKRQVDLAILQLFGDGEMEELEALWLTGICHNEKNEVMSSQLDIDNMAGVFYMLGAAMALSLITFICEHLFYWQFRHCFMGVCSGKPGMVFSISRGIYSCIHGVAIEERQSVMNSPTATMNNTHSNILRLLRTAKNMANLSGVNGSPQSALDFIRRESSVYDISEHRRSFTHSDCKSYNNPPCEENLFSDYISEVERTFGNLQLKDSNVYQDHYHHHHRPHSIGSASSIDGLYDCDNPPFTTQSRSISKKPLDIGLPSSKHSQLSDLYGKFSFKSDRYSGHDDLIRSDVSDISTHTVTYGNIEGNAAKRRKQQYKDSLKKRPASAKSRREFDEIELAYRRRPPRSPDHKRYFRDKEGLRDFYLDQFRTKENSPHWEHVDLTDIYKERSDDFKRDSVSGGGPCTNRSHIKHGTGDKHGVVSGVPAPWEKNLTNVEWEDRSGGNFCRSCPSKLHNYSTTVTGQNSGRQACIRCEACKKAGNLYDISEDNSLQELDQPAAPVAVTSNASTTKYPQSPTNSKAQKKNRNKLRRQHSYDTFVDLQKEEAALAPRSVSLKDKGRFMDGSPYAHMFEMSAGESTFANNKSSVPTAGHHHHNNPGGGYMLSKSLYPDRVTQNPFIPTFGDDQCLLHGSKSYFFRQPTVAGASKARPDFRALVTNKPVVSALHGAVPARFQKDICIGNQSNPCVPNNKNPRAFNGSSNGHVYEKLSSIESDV

Row | Compound | IC50 [2] | also measured
1 | Cc1c(-c2cnc3[nH]c(=O)n(CCN4CCC4)c3c2)cccc1C(F)(F)F [Example 168, 1-[2-(Azetidin-1-yl)ethyl]-6-[2-methyl-3-(trifluoromethyl)phenyl]-3H-imidazo[4,5-b]pyridin-2-one] | – | IC50 [1]: 4.23 µM
2 | CCOc1ccccc1-c1cnc2[nH]c(=O)n(Cc3ccccc3C#N)c2c1 [Example 484, 2-[[6-(2-Ethoxyphenyl)-2-oxo-3H-imidazo[4,5-b]pyridin-1-yl]methyl]benzonitrile] | 1.39 µM | –
3 | CCOc1ccccc1-c1cnc2[nH]c(=O)n(Cc3ccc(F)cc3)c2c1 [Example 606, 6-(2-Ethoxyphenyl)-1-[(4-fluorophenyl)methyl]-3H-imidazo[4,5-b]pyridin-2-one] | 2.18 µM | –
4 | Cc1noc(Cn2c(=O)n(C)c3ncc(-c4ccc(F)c(F)c4)cc32)n1 [Example 77, 6-(3,4-Difluorophenyl)-3-methyl-1-[(3-methyl-1,2,4-oxadiazol-5-yl)methyl]imidazo[4,5-b]pyridin-2-one] | – | IC50 [1]: 0.457 µM
5 | Cc1noc(Cn2c(=O)n(C)c3ncc(-c4ccc(F)c(C)c4F)cc32)n1 [Example 573, 6-(2,4-Difluoro-3-methyl-phenyl)-3-methyl-1-[(3-methyl-1,2,4-oxadiazol-5-yl)methyl]imidazo[4,5-b]pyridin-2-one] | 0.043 µM | –
6 | Cn1c(=O)n(Cc2cccnn2)c2cc(-c3ccc(Cl)c(C(F)(F)F)c3)cnc21 [Example 384, 6-[4-Chloro-3-(trifluoromethyl)phenyl]-3-methyl-1-(pyridazin-3-ylmethyl)imidazo[4,5-b]pyridin-2-one] | 0.206 µM | –
7 | Cc1cc(-c2cnc3c(c2)n(Cc2cncc(F)c2)c(=O)n3C)ccc1F [Example 340, 6-(4-Fluoro-3-methyl-phenyl)-1-[(5-fluoro-3-pyridyl)methyl]-3-methyl-imidazo[4,5-b]pyridin-2-one] | 0.052 µM | –
8 | Cn1c(=O)n(Cc2cccnc2)c2cc(-c3ccc(F)c(C(F)(F)F)c3)cnc21 [Example 360, 6-[4-Fluoro-3-(trifluoromethyl)phenyl]-3-methyl-1-(3-pyridylmethyl)imidazo[4,5-b]pyridin-2-one] | 0.034 µM | –
9 | Cn1c(=O)n(Cc2cccnc2)c2cc(-c3cc(C(F)F)ccc3F)cnc21 [Example 386, 6-(5-(Difluoromethyl)-2-fluorophenyl)-3-methyl-1-(pyridin-3-ylmethyl)-1,3-dihydro-2H-imidazo[4,5-b]pyridin-2-one] | 1.11 µM | –
10 | CN(C)C(=O)Cn1c(=O)n(C)c2ncc(-c3ccc(Cl)c(OC(F)F)c3)cc21 [Example 591, 2-[6-[4-Chloro-3-(difluoromethoxy)phenyl]-3-methyl-2-oxo-imidazo[4,5-b]pyridin-1-yl]-N,N-dimethyl-acetamide] | 0.034 µM | –
11 | COCCn1c(=O)[nH]c2ncc(-c3ccc(F)cc3C)cc21 [Example 2, 6-(4-Fluoro-2-methyl-phenyl)-1-(2-methoxyethyl)-3H-imidazo[4,5-b]pyridin-2-one] | – | IC50 (HTS assay buffer (1.5 mM MgCl2 dye loading; 150 mM NaCl, 3 mM KCl assay buffer), human GluN1/GluN2B cells, read-out: NR2B IC50 (μM) HTS assay): 2.06 µM
12 | Cc1cccnc1Cn1c(=O)[nH]c2ncc(-c3cccc(F)c3F)cc21 [Example 319, 6-(2,3-Difluorophenyl)-1-[(3-methyl-2-pyridyl)methyl]-3H-imidazo[4,5-b]pyridin-2-one] | > 10 µM | –
13 | COc1cc(F)ccc1-c1cnc2[nH]c(=O)n(CC3CC3)c2c1 [Example 467, 1-(Cyclopropylmethyl)-6-(4-fluoro-2-methoxy-phenyl)-3H-imidazo[4,5-b]pyridin-2-one] | – | IC50 (HTS assay buffer (1.5 mM MgCl2 in dye loading buffer; 150 mM NaCl, 3 mM KCl in assay buffer), human GluN1/GluN2B, read-out: NR2B IC50 (μM) HTS assay): 0.305 µM
14 | Cc1c(F)ccc(-c2cnc3c(c2)n(Cc2cn(C)nn2)c(=O)n3C)c1F [Example 574, 6-(2,4-Difluoro-3-methyl-phenyl)-3-methyl-1-[(1-methyltriazol-4-yl)methyl]imidazo[4,5-b]pyridin-2-one] | 0.046 µM | –
15 | O=c1[nH]c2ncc(-c3cccc(C(F)(F)F)c3)cc2n1CCN1CC(F)C1 [Example 163, 1-[2-(3-Fluoroazetidin-1-yl)ethyl]-6-[3-(trifluoromethyl)phenyl]-3H-imidazo[4,5-b]pyridin-2-one] | – | IC50 [1]: 0.246 µM
